Data on 37 compounds can be found in US8993586B2, “N1/N2-lactam acetyl-CoA carboxylase inhibitors” (Pfizer Inc., priority 2010, dated 2015).

Experiment [1] deals with recombinant human ACC1 (rhACC1) (Homo sapiens (Human), UniProt Q13085). As to the kind of experiment: recombinant hACC1 Transcreener ADP detection FP assay. The experiment is classed as biochemical. Particulars: 50 μM ATP, 120 min at 25° C. The protocol:
(§1) For example direct inhibition of ACC activity, for the compound of Formula (I) was determined using preparations of recombinant human ACC1 (rhACC1) and recombinant human ACC2 (rhACC2).
[1] Preparation of rhACC1. Two liters of SF9 cells, infected with recombinant baculovirus containing full length human ACC1 cDNA, were suspended in ice-cold lysis buffer (25 mM Tris, pH 7.5; 150 mM NaCl; 10% glycerol; 5 mM imidazole (EMD Bioscience; Gibbstown, N.J.); 2 mM TCEP (BioVectra; Charlottetown, Canada); Benzonase nuclease (10000 U/100 g cell paste; Novagen; Madison, Wis.); EDTA-free protease inhibitor cocktail (1 tab/50 mL; Roche Diagnostics; Mannheim, Germany). Cells were lysed by 3 cycles of freeze-thaw and centrifuged at 40,000×g for 40 minutes (4° C.). Supernatant was directly loaded onto a HisTrap FF crude column (GE Healthcare; Piscataway, N.J.) and eluted with an imidazole gradient up to 0.5 M over 20 column volumes (CV). ACC1-containing fractions were pooled and diluted 1:5 with 25 mM Tris, pH 7.5, 2 mM TCEP, 10% glycerol and direct loaded onto a CaptoQ (GE Healthcare) column and eluted with an NaCl gradient up to 1 M over 20 CV's. Phosphate groups were removed from purified ACC1 by incubation with lambda phosphatase (100 U/10 μM target protein; New England Biolabs; Beverly, Mass.) for 14 hours at 4° C.; okadaic acid was added (1 μM final concentration; Roche Diagnostics) to inhibit the phosphatase. Purified ACC1 was exchanged into 25 mM Tris, pH 7.5, 2 mM TCEP, 10% glycerol, 0.5 M NaCl by 6 hour dialysis at 4° C. Aliquots were prepared and frozen at −80° C.
[2] Measurement of rhACC1 inhibition. hACC1 was assayed in a Costar #3676 (Costar, Cambridge, Mass.) 384-well plate using the Transcreener ADP detection FP assay kit (Bellbrook Labs, Madison, Wis.) using the manufacturer's recommended conditions for a 50 μM ATP reaction. The final conditions for the assay were 50 mM HEPES, pH 7.2, 10 mM MgCl2, 7.5 mM tripotassium citrate, 2 mM DTT, 0.1 mg/mL BSA, 30 μM acetyl-CoA, 50 μM ATP, and 10 mM KHCO3 Typically, a 10 μl reaction was run for 120 min at 25° C., and 10 μl of Transcreener stop and detect buffer was added and the combination incubated at room temp for an additional 1 hour. The data was acquired on a Envision Fluorescence reader (PerkinElmer) using a 620 excitation Cy5 FP general dual mirror, 620 excitation Cy5 FP filter, 688 emission (S) and a 688 (P) emission filter.

For experiment [2], the target named is recombinant human ACC2 (rhACC2) (Homo sapiens (Human), UniProt O00763). As to the kind of experiment: recombinant hACC2 Transcreener ADP detection FP assay. In kind it is biochemical. The conditions noted are these: 50 uM ATP, 50 min at 25° C. The protocol: as §1
[3] Preparation of rhACC2. Human ACC2 inhibition was measured using purified recombinant human ACC2 (hrACC2). Briefly, a full length Cytomax clone of ACC2 was purchased from Cambridge Bioscience Limited and was sequenced and subcloned into PCDNA5 FRT TO-TOPO (Invitrogen, Carlsbad, Calif.). The ACC2 was expressed in CHO cells by tetracycline induction and harvested in 5 liters of DMEM/F12 with glutamine, biotin, hygromycin and blasticidin with 1 μg/mL tetracycline (Invitrogen, Carlsbad, Calif.). The conditioned medium containing ACC2 was then applied to a Softlink Soft Release Avidin column (Promega, Madison, Wis.) and eluted with 5 mM biotin. […] The purified ACC2 was dialyzed in 50 mM Tris, 200 mM NaCl, 4 mM DTT, 2 mM EDTA, and 5% glycerol. […] For measurement of ACC2 activity and assessment of ACC2 inhibition, test compounds were dissolved in DMSO and added to the rhACC2 enzyme as a 5× stock with a final DMSO concentration of 1%.
[4] Measurement of human ACC2 inhibition. hACC2 was assayed in a Costar #3676 (Costar, Cambridge, Mass.) 384-well plate using the Transcreener ADP detection FP assay kit (Bellbrook Labs, Madison, Wis.) using the manufacturer's recommended conditions for a 50 uM ATP reaction. The final conditions for the assay were 50 mM HEPES, pH 7.2, 5 mM MgCl2, 5 mM tripotassium citrate, 2 mM DTT, 0.1 mg/mL BSA, 30 μM acetyl-CoA, 50 μM ATP, and 8 mM KHCO3 Typically, a 10 μl reaction was run for 50 min at 25° C., and 10 μl of Transcreener stop and detect buffer was added and the combination incubated at room temp for an additional 1 hour. The data was acquired on an Envision Fluorescence reader (PerkinElmer) using a 620 excitation Cy5 FP general dual mirror, 620 excitation Cy5 FP filter, 688 emission (S) and a 688 (P) emission filter.

Chain of recombinant human ACC2 (rhACC2) (O00763 whole entry V2141I): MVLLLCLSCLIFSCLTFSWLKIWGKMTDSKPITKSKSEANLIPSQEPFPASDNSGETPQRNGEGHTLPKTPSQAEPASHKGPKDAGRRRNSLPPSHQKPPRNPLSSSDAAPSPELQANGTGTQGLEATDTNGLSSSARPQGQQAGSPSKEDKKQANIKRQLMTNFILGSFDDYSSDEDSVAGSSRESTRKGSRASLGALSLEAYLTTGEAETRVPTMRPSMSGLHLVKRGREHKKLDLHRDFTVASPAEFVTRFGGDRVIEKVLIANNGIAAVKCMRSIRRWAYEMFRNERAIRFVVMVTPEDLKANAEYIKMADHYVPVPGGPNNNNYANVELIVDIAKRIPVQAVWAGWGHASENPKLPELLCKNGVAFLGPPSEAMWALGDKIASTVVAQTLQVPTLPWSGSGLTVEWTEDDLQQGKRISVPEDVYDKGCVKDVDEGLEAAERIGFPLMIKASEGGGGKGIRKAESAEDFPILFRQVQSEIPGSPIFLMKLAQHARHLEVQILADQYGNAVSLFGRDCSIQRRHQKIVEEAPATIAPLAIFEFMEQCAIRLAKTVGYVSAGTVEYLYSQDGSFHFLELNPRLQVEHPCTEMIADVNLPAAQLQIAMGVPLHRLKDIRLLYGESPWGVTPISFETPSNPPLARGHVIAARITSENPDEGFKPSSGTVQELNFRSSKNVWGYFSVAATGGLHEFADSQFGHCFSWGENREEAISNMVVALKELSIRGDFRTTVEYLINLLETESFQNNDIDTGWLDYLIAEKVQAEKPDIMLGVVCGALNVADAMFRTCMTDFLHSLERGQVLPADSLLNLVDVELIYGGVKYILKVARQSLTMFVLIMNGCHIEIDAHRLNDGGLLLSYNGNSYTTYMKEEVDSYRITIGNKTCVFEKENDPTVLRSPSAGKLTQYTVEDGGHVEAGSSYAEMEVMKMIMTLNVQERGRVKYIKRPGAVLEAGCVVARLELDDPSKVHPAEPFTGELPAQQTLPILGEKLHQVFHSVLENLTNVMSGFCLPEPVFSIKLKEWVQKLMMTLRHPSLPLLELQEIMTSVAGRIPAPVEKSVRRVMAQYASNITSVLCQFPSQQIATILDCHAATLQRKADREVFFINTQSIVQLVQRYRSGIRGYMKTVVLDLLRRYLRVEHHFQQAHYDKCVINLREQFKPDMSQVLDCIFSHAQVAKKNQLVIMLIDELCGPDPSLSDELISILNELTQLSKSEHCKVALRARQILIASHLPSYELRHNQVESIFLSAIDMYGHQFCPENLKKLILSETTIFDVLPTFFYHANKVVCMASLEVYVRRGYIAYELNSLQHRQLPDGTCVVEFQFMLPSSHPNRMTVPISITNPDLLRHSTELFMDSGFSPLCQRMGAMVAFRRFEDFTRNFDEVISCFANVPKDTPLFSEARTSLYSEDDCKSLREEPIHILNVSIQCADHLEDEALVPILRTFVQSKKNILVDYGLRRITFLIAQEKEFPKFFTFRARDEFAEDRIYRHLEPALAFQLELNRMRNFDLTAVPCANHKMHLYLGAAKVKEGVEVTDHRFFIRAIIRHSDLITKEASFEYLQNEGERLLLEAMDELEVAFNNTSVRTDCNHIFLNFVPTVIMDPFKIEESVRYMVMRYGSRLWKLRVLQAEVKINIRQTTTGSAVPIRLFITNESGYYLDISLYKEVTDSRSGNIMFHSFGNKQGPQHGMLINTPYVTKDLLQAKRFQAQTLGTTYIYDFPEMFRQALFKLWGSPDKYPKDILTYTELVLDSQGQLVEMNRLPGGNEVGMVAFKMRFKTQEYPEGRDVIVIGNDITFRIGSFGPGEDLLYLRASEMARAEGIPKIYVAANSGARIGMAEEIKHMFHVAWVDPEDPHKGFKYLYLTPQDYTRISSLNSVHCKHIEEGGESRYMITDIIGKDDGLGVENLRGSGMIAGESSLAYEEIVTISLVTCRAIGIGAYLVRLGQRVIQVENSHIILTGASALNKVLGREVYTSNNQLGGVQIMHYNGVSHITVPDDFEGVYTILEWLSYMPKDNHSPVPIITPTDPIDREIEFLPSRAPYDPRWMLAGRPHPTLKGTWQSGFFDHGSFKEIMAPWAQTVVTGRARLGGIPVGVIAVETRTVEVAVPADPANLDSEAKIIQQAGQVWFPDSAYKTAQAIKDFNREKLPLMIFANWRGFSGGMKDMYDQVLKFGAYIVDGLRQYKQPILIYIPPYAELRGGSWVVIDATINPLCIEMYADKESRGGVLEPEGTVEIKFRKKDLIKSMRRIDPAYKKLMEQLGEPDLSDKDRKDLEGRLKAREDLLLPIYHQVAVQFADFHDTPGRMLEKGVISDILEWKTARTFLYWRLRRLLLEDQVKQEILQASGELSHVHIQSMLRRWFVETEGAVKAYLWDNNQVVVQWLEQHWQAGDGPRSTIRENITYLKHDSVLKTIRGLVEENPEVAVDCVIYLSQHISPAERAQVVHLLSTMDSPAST

As to `Cc1nc2cc(C(=O)N3CCC4(CC3)Cc3cn(C(C)C)nc3C(=O)N4)ccc2[nH]1` [Example 40], the IC50 – broadly, the concentration that inhibits the measured activity by half – in experiment [1] is 656 nM; in experiment [2], 177 nM.
On the same counts, the results for `CNc1n[nH]c2cc(C(=O)N3CCC4(CC3)Cc3cn(C(C)(C)C)nc3C(=O)N4)ccc12` [Example 89] are 343 nM and 44 nM.
On the same counts, the results for `CC(C)(C)n1cc2c(n1)C(=O)NC1(CCN(C(=O)c3cc(C(F)(F)F)c4[nH]ncc4c3)CC1)C2` [Example 78] are 155 nM and 34 nM.
On the same counts, the results for `CC(F)(F)CNc1ccc2ccc(C(=O)N3CCC4(CC3)Cc3cn(C(C)(C)C)nc3C(=O)N4)cc2n1` [Example 125] are 9 nM and 1.7 nM.
In the case of `CCCNc1nccc2ccc(C(=O)N3CCC4(CC3)Cc3cn(C(C)(C)C)nc3C(=O)N4)cc12` [Example 119], the IC50 in experiment [1] amounted to 24 nM; in experiment [2], 2.5 nM.
Turning to `CNc1nc2cc(C(=O)N3CCC4(CC3)Cc3cnn(C(C)C)c3C(=O)N4)ccc2[nH]1` [Example 33], the values for the IC50 in experiment [1] and in experiment [2] were 523 nM and 108 nM, respectively.
In the case of `CNc1ccc2ccc(C(=O)N3CCC4(CC3)Cc3cnn(C(C)C)c3C(=O)N4)cc2n1` [Example 29], the IC50 worked out at 33 nM in experiment [1] and 9.2 nM in experiment [2].
For `CNc1cc2ccc(C(=O)N3CCC4(CC3)Cc3cn(C(C)(C)C)nc3C(=O)N4)cc2cn1` [Example 95], in that order: 105 nM and 9.2 nM.
For `COc1cccc2cc(C(=O)N3CCC4(CC3)Cc3cn(C(C)(C)C)nc3C(=O)N4)cnc12` [Example 68], in that order: 221 nM and 68 nM.
With `CC(C)(C)n1cc2c(n1)C(=O)NC1(CCN(C(=O)c3ccc4ccnc(NC5CCC5)c4c3)CC1)C2` [Example 118], the IC50 in experiment [1] worked out at 17 nM; in experiment [2] it was 2.7 nM.
In the case of `COc1ccc2ncc(C(=O)N3CCC4(CC3)Cc3cnn(C(C)C)c3C(=O)N4)cc2c1` [Example 26], the IC50 was determined as 121 nM in experiment [1] and 60 nM in experiment [2].
`COc1cc(C(=O)N2CCC3(CC2)Cc2cnn(C(C)C)c2C(=O)N3)cc2[nH]ncc12` [Example 12]: the values for the IC50 in experiment [1] and in experiment [2] were 35 nM and 37 nM, respectively.
For `CC(C)n1ncc2c1C(=O)NC1(CCN(C(=O)c3cnc4ccccc4c3)CC1)C2` [Example 20], in that order: 336 nM and 299 nM.
Regarding `CC(C)n1ncc2c1C(=O)NC1(CCN(C(=O)c3ccc4cnccc4c3)CC1)C2` [Example 22], the IC50 in experiment [1] turned out to be 1250 nM; in experiment [2] it was 843 nM.
In the case of `CC(C)n1ncc2c1C(=O)NC1(CCN(C(=O)c3ccc4cccnc4c3)CC1)C2` [Example 24], the results for the IC50 in experiment [1] and in experiment [2] were 688 nM and 320 nM, respectively.
Take `CC(C)(C)n1cc2c(n1)C(=O)NC1(CCN(C(=O)c3ccc4cc(N)ncc4c3)CC1)C2` [Example 94]: the values for the IC50 in experiment [1] and in experiment [2] were 130 nM and 23 nM, respectively.
For `COc1nccc2cc(C(=O)N3CCC4(CC3)Cc3cn(C(C)(C)C)nc3C(=O)N4)ccc12` [Example 92], in that order: 244 nM and 55 nM.
On the same counts, the results for `CC(C)(C)n1cc2c(n1)C(=O)NC1(CCN(C(=O)c3ccc4cn[nH]c4c3)CC1)C2` [Example 52] are 88 nM and 17 nM.
Regarding `CC(C)n1ncc2c1C(=O)NC1(CCN(C(=O)c3ccc4[nH]nc(C#N)c4c3)CC1)C2` [Example 25], the figures for the IC50 in experiment [1] and in experiment [2] were 259 nM and 137 nM, respectively.
For `CCN(C)c1ccc2ccc(C(=O)N3CCC4(CC3)Cc3cn(C(C)(C)C)nc3C(=O)N4)cc2n1` [Example 108], in that order: 15 nM and 2.4 nM.
For `CC(C)n1ncc2c1C(=O)NC1(CCN(C(=O)c3ccc4[nH]ncc4c3)CC1)C2` [Example 5], in that order: 227 nM and 174 nM.
Regarding `CC(C)n1ncc2c1C(=O)NC1(CCN(C(=O)c3ccc4ncccc4c3)CC1)C2` [Example 21], the IC50 is 619 nM in experiment [1] and 341 nM in experiment [2].
For `CCc1n[nH]c2ccc(C(=O)N3CCC4(CC3)Cc3cnn(C(C)C)c3C(=O)N4)cc12` [Example 15], in that order: 251 nM and 143 nM.
On the same counts, the results for `COc1n[nH]c2cc(C(=O)N3CCC4(CC3)Cc3cn(C(C)(C)C)nc3C(=O)N4)ccc12` [Example 79] are 216 nM and 18 nM.
For `COc1ccc2ncc(C(=O)N3CCC4(CC3)Cc3cn(C(C)(C)C)nc3C(=O)N4)cc2c1` [Example 48], in that order: 30 nM and 9.2 nM.
Turning to `CC(C)(C)n1cc2c(n1)C(=O)NC1(CCN(C(=O)c3ccc4ccc(NC5COC5)nc4c3)CC1)C2` [Example 113], the IC50 in experiment [1] was 507 nM; in experiment [2], 44 nM.
For `CC(C)(C)n1cc2c(n1)C(=O)NC1(CCN(C(=O)c3ccc4ccc(N)nc4c3)CC1)C2` [Example 72], the IC50 in experiment [1] stood at 28 nM; in experiment [2], 5.9 nM.
Consider `Cn1[nH]c2ccc(C(=O)N3CCC4(CC3)Cc3cn(C(C)(C)C)nc3C(=O)N4)cc2c1=O` [Example 67], for which the IC50 was 1340 nM in experiment [1] and 311 nM in experiment [2].
With `COc1ccc2cc(C(=O)N3CCC4(CC3)Cc3cn(C(C)(C)C)nc3C(=O)N4)ccc2c1` [Example 46], the IC50 in experiment [1] amounted to 36 nM; in experiment [2] it was 5.3 nM.
For `CC(C)n1ncc2c1C(=O)NC1(CCN(C(=O)c3cnc4[nH]cc(Cl)c4c3)CC1)C2` [Example 31], in that order: 179 nM and 96 nM.
For `Cc1n[nH]c2c(C)cc(C(=O)N3C4CCC3CC3(Cc5cn(C(C)(C)C)nc5C(=O)N3)C4)cc12` (centres unmarked) [Example 114], in that order: 4820 nM and 612 nM.
On to `CC(C)Nc1ccc2ccc(C(=O)N3CCC4(CC3)Cc3cn(C(C)(C)C)nc3C(=O)N4)cc2n1` [Example 107], for which the IC50 came to 6.1 nM in experiment [1] and 2.2 nM in experiment [2].
On the same counts, the results for `CC(C)n1ncc2c1C(=O)NC1(CCN(C(=O)c3ccc4ccncc4c3)CC1)C2` [Example 23] are 621 nM and 520 nM.
With `COc1cc2ccc(C(=O)N3CCC4(CC3)Cc3cn(C(C)(C)C)nc3C(=O)N4)cc2cn1` [Example 90], the values for the IC50 in experiment [1] and in experiment [2] were 209 nM and 31 nM, respectively.
For `CC(C)n1ncc2c1C(=O)NC1(CCN(C(=O)c3ccc4[nH]nc(C(N)=O)c4c3)CC1)C2` [Example 27], the IC50 in experiment [1] was found to be 296 nM; in experiment [2] it was 132 nM.
On the same counts, the results for `CC(C)(C)n1cc2c(n1)C(=O)NC1(CCN(C(=O)c3ccc4ccnc(NC5CC5)c4c3)CC1)C2` [Example 115] are 29 nM and 2.9 nM.
With `CC(C)n1ncc2c1C(=O)NC1(CCN(C(=O)c3ccc4c(cnn4C)c3)CC1)C2` [Example 13], the results for the IC50 in experiment [1] and in experiment [2] were 2040 nM and 1550 nM, respectively.
